In ChEMBL document CHEMBL1221253, “Fragment-based discovery and optimization of BACE1 inhibitors” (Bioorg Med Chem Lett, 2010):
Blank lines part the entries; values can stand above or below the compound they belong to.

What was measured:
Beta-secretase 1 [1] = target: T1, Beta-secretase 1 (Homo sapiens, UniProt P56817); assay: Inhibition of BACE1 assessed as amyloid beta secretion by cell based assay
Beta-secretase 1 [2] = target: T1, Beta-secretase 1; assay: Binding affinity to BACE1 at 2 mM by surface plasmon resonance assay
[3] = Half life in human liver microsomes; assay type: ADME, Microsome
Cathepsin D = Cathepsin D (Homo sapiens, UniProt P07339); assay: Inhibition of cathepsin D
[4] = Genotoxicity in Salmonella Typhimurium by Ames test; assay type: toxicity; conditions: salmonella enterica subsp. enterica serovar typhimurium
[5] = Maximum drug flux by PAMPA; assay type: ADME
[6] = Half life in rat liver microsomes; assay type: ADME, Microsome
[7] = Genotoxicity in Salmonella Typhimurium by Ames test in presence of S9 liver microsomes; assay type: toxicity, Microsome; conditions: salmonella enterica subsp. enterica serovar typhimurium
Beta-secretase 2 = target: T2, Beta-secretase 2 (Homo sapiens, UniProt Q9Y5Z0); assay: Inhibition of human BACE2
T2 sequence (Q9Y5Z0 whole entry): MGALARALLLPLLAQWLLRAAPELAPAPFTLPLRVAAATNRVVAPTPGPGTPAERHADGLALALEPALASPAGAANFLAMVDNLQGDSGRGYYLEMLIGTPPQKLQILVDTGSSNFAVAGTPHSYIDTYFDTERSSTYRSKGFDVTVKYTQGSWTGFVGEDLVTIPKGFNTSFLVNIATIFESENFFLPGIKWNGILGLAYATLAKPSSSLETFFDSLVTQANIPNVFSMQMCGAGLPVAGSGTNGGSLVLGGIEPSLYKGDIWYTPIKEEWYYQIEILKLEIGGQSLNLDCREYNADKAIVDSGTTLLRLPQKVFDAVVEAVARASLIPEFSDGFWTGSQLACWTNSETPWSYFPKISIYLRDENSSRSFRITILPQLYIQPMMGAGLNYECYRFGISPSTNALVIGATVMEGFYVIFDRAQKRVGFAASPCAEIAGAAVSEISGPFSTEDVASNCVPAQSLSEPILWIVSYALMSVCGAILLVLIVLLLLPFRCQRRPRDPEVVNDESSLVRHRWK

[8] = target: Voltage-gated inwardly rectifying potassium channel KCNH2 (Homo sapiens, UniProt Q12809); assay: Inhibition of human ERG
Sequence of Voltage-gated inwardly rectifying potassium channel KCNH2 (Q12809 whole entry): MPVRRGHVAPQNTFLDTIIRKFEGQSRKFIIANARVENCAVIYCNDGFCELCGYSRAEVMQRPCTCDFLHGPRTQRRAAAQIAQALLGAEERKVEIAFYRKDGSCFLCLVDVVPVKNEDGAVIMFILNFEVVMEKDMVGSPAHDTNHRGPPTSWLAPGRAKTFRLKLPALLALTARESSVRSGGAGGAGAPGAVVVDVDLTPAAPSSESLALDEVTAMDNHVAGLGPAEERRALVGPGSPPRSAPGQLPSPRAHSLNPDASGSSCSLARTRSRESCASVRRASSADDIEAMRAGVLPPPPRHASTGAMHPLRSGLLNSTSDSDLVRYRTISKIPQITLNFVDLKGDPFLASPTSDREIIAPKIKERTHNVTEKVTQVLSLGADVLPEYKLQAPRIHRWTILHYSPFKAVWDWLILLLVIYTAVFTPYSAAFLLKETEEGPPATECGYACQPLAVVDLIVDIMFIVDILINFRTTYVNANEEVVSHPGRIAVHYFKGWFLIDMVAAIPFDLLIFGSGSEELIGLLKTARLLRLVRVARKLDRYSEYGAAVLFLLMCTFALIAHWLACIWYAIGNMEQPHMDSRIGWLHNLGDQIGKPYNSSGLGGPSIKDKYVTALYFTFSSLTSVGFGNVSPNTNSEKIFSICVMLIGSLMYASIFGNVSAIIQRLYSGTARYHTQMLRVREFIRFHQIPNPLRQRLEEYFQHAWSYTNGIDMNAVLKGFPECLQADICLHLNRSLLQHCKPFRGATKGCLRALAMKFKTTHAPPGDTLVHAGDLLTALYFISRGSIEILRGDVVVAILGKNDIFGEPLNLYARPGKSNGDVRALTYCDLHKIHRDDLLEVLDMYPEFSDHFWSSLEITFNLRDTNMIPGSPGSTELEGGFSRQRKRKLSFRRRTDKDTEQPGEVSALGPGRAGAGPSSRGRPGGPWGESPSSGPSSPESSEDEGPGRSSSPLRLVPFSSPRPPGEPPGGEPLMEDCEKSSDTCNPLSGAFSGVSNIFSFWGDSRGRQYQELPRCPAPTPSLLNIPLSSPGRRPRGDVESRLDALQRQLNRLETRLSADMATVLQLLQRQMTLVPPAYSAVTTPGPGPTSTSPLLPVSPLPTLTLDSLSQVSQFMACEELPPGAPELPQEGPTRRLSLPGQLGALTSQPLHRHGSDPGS

T1 sequence (P56817 whole entry): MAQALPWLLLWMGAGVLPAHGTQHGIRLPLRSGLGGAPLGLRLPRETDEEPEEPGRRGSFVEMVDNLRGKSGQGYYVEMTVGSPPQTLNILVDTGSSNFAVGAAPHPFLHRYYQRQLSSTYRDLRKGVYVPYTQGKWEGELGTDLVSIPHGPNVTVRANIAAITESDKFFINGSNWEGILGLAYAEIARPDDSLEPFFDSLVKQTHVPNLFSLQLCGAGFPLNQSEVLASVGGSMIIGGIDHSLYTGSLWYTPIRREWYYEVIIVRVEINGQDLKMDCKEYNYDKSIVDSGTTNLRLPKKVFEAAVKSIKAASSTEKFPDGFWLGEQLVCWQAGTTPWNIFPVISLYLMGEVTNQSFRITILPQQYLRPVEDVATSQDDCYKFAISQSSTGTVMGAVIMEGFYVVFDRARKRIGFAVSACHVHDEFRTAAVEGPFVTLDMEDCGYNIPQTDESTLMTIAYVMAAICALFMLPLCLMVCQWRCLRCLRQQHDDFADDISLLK
Sequence of Cathepsin D (P07339 65-162 limits assumed): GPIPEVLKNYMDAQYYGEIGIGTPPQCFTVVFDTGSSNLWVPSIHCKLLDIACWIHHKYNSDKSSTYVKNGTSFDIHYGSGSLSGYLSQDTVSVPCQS
Sequence of Cathepsin D (P07339 169-412 limits assumed): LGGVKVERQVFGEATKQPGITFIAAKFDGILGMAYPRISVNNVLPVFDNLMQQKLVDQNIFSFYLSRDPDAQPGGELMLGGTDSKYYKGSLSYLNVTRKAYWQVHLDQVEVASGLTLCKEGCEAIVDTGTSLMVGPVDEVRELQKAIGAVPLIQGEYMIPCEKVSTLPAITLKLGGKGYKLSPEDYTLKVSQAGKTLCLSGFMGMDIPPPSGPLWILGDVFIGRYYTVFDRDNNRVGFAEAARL

SMILES: CN1CCC(NC(=O)CCCn2c(N)nc3cc(Cl)ccc32)CC1
IC50 (Beta-secretase 1 [1]): 325 µM

SMILES: CC[C@@H](CC(=O)NCCC(C)(C)C)n1c(N)nc2cc(Cl)ccc21
IC50 (Beta-secretase 1 [1]): 95 µM

SMILES: Nc1nc2cc(Cl)ccc2n1CCCC(=O)NCC1CCCCC1
IC50 (Beta-secretase 1 [1]): 83 µM

SMILES: CC[C@@H](CC(=O)N(C)CC1CCCCC1)n1c(N)nc2cc(Cl)ccc21
IC50 (Beta-secretase 1 [1]): 375 µM

SMILES: CC[C@@H](CC(=O)NCC1CCOCC1)n1c(N)nc2cc(Cl)ccc21
IC50 (Beta-secretase 1 [1]): > 1000 µM

SMILES: CC(C)C[C@H](CC(=O)NC(C)C)n1c(N)nc2cc(Cl)ccc21
IC50 (Beta-secretase 1 [1]): > 1000 µM

SMILES: CC[C@@H](CC(=O)NCC1CCCCC1)n1c(N)nc2cc(Cl)ccc21
half-life [3]: 5.5 min
IC50 (Cathepsin D): 42 µM
Activity [4]: Non-toxic
Activity [5]: 12%
half-life [6]: 6.7 min
Activity [7]: Non-toxic
IC50 (Beta-secretase 2): 8 µM
IC50 [8]: 7.5 µM

SMILES: CN(CC1CCCCC1)C(=O)CCCn1c(N)nc2cc(Cl)ccc21
IC50 (Beta-secretase 1 [1]): 59 µM

SMILES: CC(C)C[C@@H](CC(=O)NC(C)C)n1c(N)nc2cc(Cl)ccc21
IC50 (Beta-secretase 1 [1]): 246 µM

SMILES: Nc1nc2cc(Cl)ccc2n1CCCC(=O)NCCC1CCNC1 (stereo not given)
IC50 (Beta-secretase 1 [1]): 444 µM

SMILES: CC[C@@H](CC(=O)NCCN1CCOCC1)n1c(N)nc2cc(Cl)ccc21
IC50 (Beta-secretase 1 [1]): 440 µM

SMILES: CC(C)NC(=O)CCCn1c(N)nc2cc(Cl)ccc21
IC50 (Beta-secretase 1 [1]): 193 µM

SMILES: CC[C@@H](CC(=O)NC(C)C)n1c(N)nc2cc(Cl)ccc21
IC50 (Beta-secretase 1 [1]): 695 µM

SMILES: Nc1nc2cc(Cl)ccc2n1CCCC(=O)NCCN1CCOCC1
IC50 (Beta-secretase 1 [1]): 827 µM

SMILES: Nc1nc2cc(Cl)ccc2n1CCCC(=O)NCC1CC1
IC50 (Beta-secretase 1 [1]): 2850 µM

SMILES: CC[C@@H](CC(=O)NCCC1CCNC1)n1c(N)nc2cc(Cl)ccc21 (stereo not given in full)
IC50 (Beta-secretase 1 [1]): 270 µM

The remaining lines, values ahead:

IC50 (Beta-secretase 1 [1]): 168 µM
SMILES: CC[C@@H](CC(=O)N[C@@H](COC(C)(C)C)C(=O)OC)n1c(N)nc2cc(Cl)ccc21

IC50 (Beta-secretase 1 [1]): > 1000 µM
SMILES: CC[C@@H](CC(=O)NCc1ccccn1)n1c(N)nc2cc(Cl)ccc21

IC50 (Beta-secretase 1 [1]): 75 µM
SMILES: CC[C@@H](CC(=O)N[C@H](COC(C)(C)C)C(=O)OC)n1c(N)nc2cc(Cl)ccc21

IC50 (Beta-secretase 1 [1]): 426 µM
SMILES: Nc1nc2cc(Cl)ccc2n1CCCC(=O)NCc1ccccn1

IC50 (Beta-secretase 1 [1]): 770 µM
inhibition (Beta-secretase 1 [2]): 63%
SMILES: Nc1nc2cc(Cl)ccc2n1CCCO

IC50 (Beta-secretase 1 [1]): 194 µM
SMILES: CN(Cc1cccc(F)c1)C(=O)CCCn1c(N)nc2cc(Cl)ccc21

IC50 (Beta-secretase 1 [1]): 1400 µM
SMILES: Nc1nc2cc(Cl)ccc2n1CCCC(=O)NCc1ccccc1

IC50 (Beta-secretase 1 [1]): 1010 µM
inhibition (Beta-secretase 1 [2]): 20%
SMILES: c1cnc2ncc(-c3ccncc3)n2c1

IC50 (Beta-secretase 1 [1]): 249 µM
SMILES: Nc1nc2cc(Cl)ccc2n1CCCC(=O)NCc1cccc(F)c1

IC50 (Beta-secretase 1 [1]): 264 µM
SMILES: CC[C@@H](CC(=O)NCc1ccc(F)cc1)n1c(N)nc2cc(Cl)ccc21

IC50 (Beta-secretase 1 [1]): 54 µM
SMILES: CC(C)C[C@@H](CC(=O)NCc1cccc(F)c1)n1c(N)nc2cc(Cl)ccc21

IC50 (Beta-secretase 1 [1]): 776 µM
inhibition (Beta-secretase 1 [2]): 27%
SMILES: O=C1c2ccccc2C(=O)C1(O)O

IC50 (Beta-secretase 1 [1]): 72 µM
SMILES: CC[C@@H](CC(=O)NCc1ccccc1)n1c(N)nc2cc(Cl)ccc21

IC50 (Beta-secretase 1 [1]): 340 µM
SMILES: CC[C@@H](CC(=O)NCc1cccc(F)c1)n1c(N)nc2cc(Cl)ccc21

IC50 (Beta-secretase 1 [1]): 243 µM
SMILES: CC[C@@H](CC(=O)NCC1CC1)n1c(N)nc2cc(Cl)ccc21

IC50 (Beta-secretase 1 [1]): 516 µM
SMILES: CC[C@H](CC(=O)NCc1ccccc1)n1c(N)nc2cc(Cl)ccc21

IC50 (Beta-secretase 1 [1]): 862 µM
inhibition (Beta-secretase 1 [2]): 29%
SMILES: Clc1cccc(-c2cnc3ncccn23)c1

IC50 (Beta-secretase 1 [1]): 235 µM
SMILES: CC(C)C[C@@H](CC(=O)NCc1ccccn1)n1c(N)nc2cc(Cl)ccc21

IC50 (Beta-secretase 1 [1]): 87 µM
SMILES: CC[C@@H](CC(=O)N[C@@H](COC(C)(C)C)C(=O)O)n1c(N)nc2cc(Cl)ccc21

IC50 (Beta-secretase 1 [1]): 928 µM
inhibition (Beta-secretase 1 [2]): 36%
SMILES: COn1c(-c2ccccc2)nc2ncccc21

IC50 (Beta-secretase 1 [1]): 731 µM
inhibition (Beta-secretase 1 [2]): 34%
SMILES: Nc1nc2ccc(Cl)cc2[nH]1
